# According to patent US20140187538A1, “LORCASERIN HYDROCHLORIDE” (DR. REDDY'S LABORATORIES LTD., priority 2012, published 2014):
# Assay: physical stability of the amorphous solid form (tendency to crystallize over time)
# Format: physicochemical
# Details: solid state; amorphous drug substance alone vs amorphous solid dispersion; crystallization over a period of time
compound,measurement,value
C[C@H]1CNCCc2ccc(Cl)cc21.Cl [amorphous lorcaserin hydrochloride],physical stability,limited physical stability
